Data: PMC8789064, “High-Throughput-Methyl-Reading (HTMR) assay: a solution based on nucleotide methyl-binding proteins enables large-scale screening for DNA/RNA methyltransferases and demethylases” (Nucleic Acids Research, 2021)
Read-outs that look alike come from different tables or passages of the source. Each block holds one molecule with its values, some of them ahead of it.

Columns and labels:
tri-MBD1 = molecular target: T1, tri-MBD1 (Homo sapiens, UniProt Q9UIS9); assay: Counter screen: binding of methyl-binding protein tri-MBD1 without enzyme
T1 construct: Genes encoding tri-MBD1 (tandem three MBD1 1–105 ORF); made in house; host or cells: E. coli BL21(DE3) codon plus RIPL
T1 sequence (Q9UIS9 with tags, fused parts or gaps): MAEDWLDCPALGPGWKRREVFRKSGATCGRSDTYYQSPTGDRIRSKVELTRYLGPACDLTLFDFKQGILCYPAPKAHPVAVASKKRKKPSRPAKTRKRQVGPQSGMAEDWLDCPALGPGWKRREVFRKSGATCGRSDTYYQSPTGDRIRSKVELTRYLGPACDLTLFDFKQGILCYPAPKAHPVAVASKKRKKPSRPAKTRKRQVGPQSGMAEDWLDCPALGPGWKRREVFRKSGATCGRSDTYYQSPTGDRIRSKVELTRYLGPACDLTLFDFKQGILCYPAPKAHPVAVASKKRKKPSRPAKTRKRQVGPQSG
Excerpt: (§1) False-positive compounds should be abandoned during the high-throughput screening. […] This entails replacing half of the substrate oligonucleotide with product oligonucleotide in the absence of the enzyme and adding the methyl-binding protein into the wells. The FP signal can then be measured according to the above steps.
(§2) Finally, we performed high-throughput screening against DNMT1 and ALKBH5 for an in-house library of 2000 compounds. […] Half of the substrate oligonucleotide was replaced with the product (chemical synthetic) in the assay (the enzyme was removed), in which case the false-positive compounds would still influence the FP signal value while the true hits would not. […] We performed a cofactor-competitive assay to evaluate the biological activity and mechanism of action of hit compounds.

METTL3/14 = molecular target: T2, METTL3/14 (Homo sapiens, UniProt Q86U44); assay: HTMR (FP-based) METTL3/METTL14 methylation assay; format: biochemical; settings: from IC50 vs SAM concentration line, Cheng-Prusoff
T2 construct: The full-length METTL3 and METTL14 plasmids were obtained from Professor Ping Yin; made in house; host or cells: E. coli BL21(DE3) codon plus RIPL
Experimental: (§3) To start the assay, the binding curve of the substrate oligonucleotide and the product oligonucleotide (chemical synthetic) were titrated to determine the proper concentration of methyl-binding proteins. The final NaCl conditions of DNMT1, TET2, METTL3/14 and ALKBH5 were 400, 300, 250 and 250 mM, respectively. The assays could be performed in 10 μl + 10 μl, 20 μl + 20 μl (as in this study), or other formats in a black 384-well plate (Corning #3575). The former is the reaction volume containing enzyme, oligonucleotide, and cofactors, while the latter is the volume of methyl-binding protein. The reaction was initiated by the addition of the enzymes or the substrates and terminated by the addition of methyl-binding proteins. The FP signals were then measured in fluorescence polarization standard mode by EnVision Multilabel Reader (PerkinElmer) after 10–15 min of incubation. The plate can be repeatedly measured. […] All data were analyzed in GraphPad Prism 7.0.
The enzymes, oligonucleotides, and cofactors were diluted in a reaction buffer containing 20 mM HEPES, pH 7.4, 1 mM DTT and 0.4 U/μl RNase inhibitor (BBI Life sciences). […] After 10–15 min of incubation, the plate was read by Envision (PerkinElmer).
(§4) All the curves were plotted in the Graphpad prism 7.0. And the IC50 values were determined by the log(inhibitor) versus response—variable slope (four parameters) model in Graphpad prism 7.0. […]

DNMT1 = molecular target: T3, DNMT1 (Homo sapiens, UniProt P26358); assay: DNMT1 FP binding assay (DNA binding of the enzyme)
T3 construct: The human DNMT1 (351–1600) gene with N terminal 6xHis tag and a TEV cleavage site; 6xHis (N); TEV cleavage site (N); made in house; host or cells: Spodoptera frugiperda Sf9 (baculovirus)
Experimental: (§5) The FP binding assay of DNMT1 and METTL3/14 was performed in a buffer containing 20 mM HEPES, pH 7.4, and 1 mM DTT. The FP binding assay of TET2 and ALKBH5 was performed in the reaction buffer that removes the NaCl. At high concentrations of NaCl (over 100 mM), weak FP signals were detected for the enzymes.

DNMT1(351–1600) = molecular target: T4, DNMT1(351–1600) (Homo sapiens, UniProt P26358); assay: HTMR (FP-based) DNMT1 methylation assay; format: biochemical
T4 construct: The human DNMT1 (351–1600) gene with N terminal 6xHis tag and a TEV cleavage site; 6xHis (N); TEV cleavage site (N); made in house; host or cells: Spodoptera frugiperda Sf9 (baculovirus)
Experimental: To start the assay, the binding curve of the substrate oligonucleotide and the product oligonucleotide (chemical synthetic) were titrated to determine the proper concentration of methyl-binding proteins. […] The assays could be performed in 10 μl + 10 μl, 20 μl + 20 μl (as in this study), or other formats in a black 384-well plate (Corning #3575). The former is the reaction volume containing enzyme, oligonucleotide, and cofactors, while the latter is the volume of methyl-binding protein. The reaction was initiated by the addition of the enzymes or the substrates and terminated by the addition of methyl-binding proteins. The FP signals were then measured in fluorescence polarization standard mode by EnVision Multilabel Reader (PerkinElmer) after 10–15 min of incubation. […] All data were analyzed in GraphPad Prism 7.0.
The reaction components (enzyme, oligonucleotide and cofactors) were diluted in a reaction buffer containing 20 mM HEPES, pH 7.4, 1 mM EDTA and 1 mM DTT. […] This was followed by incubation for 10–15 min at RT (room temperature), after which the plate was read by EnVision (PerkinElmer).

YTHDF1 = molecular target: T5, YTHDF1 (Homo sapiens, UniProt Q9BYJ9); assay: Counter screen: binding of methyl-binding protein YTHDF1 without enzyme; settings: ALKBH5 assay format, enzyme removed
T5 construct: YTHDF1 (361–559), YTHDF2 (380–579) and YTHDC1 (355–492) were chemically synthesized; made in house; host or cells: E. coli BL21(DE3) codon plus RIPL
T5 sequence (Q9BYJ9 361-559): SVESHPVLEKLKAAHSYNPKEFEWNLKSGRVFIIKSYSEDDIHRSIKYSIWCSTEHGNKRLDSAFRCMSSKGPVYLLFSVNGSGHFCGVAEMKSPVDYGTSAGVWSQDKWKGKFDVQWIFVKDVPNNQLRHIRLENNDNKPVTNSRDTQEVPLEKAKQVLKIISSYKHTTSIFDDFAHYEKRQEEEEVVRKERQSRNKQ
Excerpt: as §1, §2

ALKBH5 [1] = molecular target: T6, ALKBH5 (Homo sapiens, UniProt Q6P6C2); assay: ALKBH5 FP binding assay (RNA binding of the enzyme)
T6 construct: The untagged MBD1 (1–105) and ALKBH5 (66–292) catalytic domain genes were subcloned; made in house; host or cells: E. coli BL21(DE3) codon plus RIPL
Experimental: as §5

TET2 = molecular target: T7, TET2 (Homo sapiens, UniProt Q6N021); assay: HTMR (FP-based) TET2 demethylation assay; format: biochemical
T7 construct: made in house; host or cells: E. coli BL21(DE3) codon plus RIPL
Experimental: To start the assay, the binding curve of the substrate oligonucleotide and the product oligonucleotide (chemical synthetic) were titrated to determine the proper concentration of methyl-binding proteins. […] The reaction was initiated by the addition of the enzymes or the substrates and terminated by the addition of methyl-binding proteins. The FP signals were then measured in fluorescence polarization standard mode by EnVision Multilabel Reader (PerkinElmer) after 10–15 min of incubation. […] Additionally, this experiment must avoid strong light exposure.
The reaction buffer containing 20 mM HEPES, pH 8.0, 100 mM NaCl, 1 mM DTT, 1 mM ATP, 1 mM 2-OG, 2 mM ascorbic acid and 100 μM Fe2(NH4)2(SO4)2. Fe^2+ is the last to be added. The reaction contained 40 nM TET2 and 20 nM FAM-labeled fully-methylated DNA occurred at 37°C for 60 min. Next, 20 μl tri-MBD1 (500 nM as final concentration) protein was diluted in 20 mM HEPES, pH 7.4, 500 mM NaCl and transferred into wells to end the reaction. After 10–15 min of incubation, the plate was read by Envision (PerkinElmer).

ALKBH5(66–292) [2] = molecular target: T8, ALKBH5(66–292) (Homo sapiens, UniProt Q6P6C2); assay: Thermal shift assay; format: binding; settings: 5 μM ALKBH5, 100 μM compound (molar ratio 1:20); read-out: Tm shift (ΔTm) of ALKBH5
T8 construct: The untagged MBD1 (1–105) and ALKBH5 (66–292) catalytic domain genes were subcloned; made in house; host or cells: E. coli BL21(DE3) codon plus RIPL
Experimental: The thermal shift assay was performed with a QuantStudio 6 Flex real-time PCR machine (Applied Biosystems) with a buffer containing 20 mM HEPES, pH 7.4 and 100 mM NaCl. The final system was 20 μl, which contained 5 μM ALKBH5(66–292) protein, 1:1000 dilution of SYPRO Orange dye (purchased from Invitrogen, 5000× stock in DMSO), and DMSO or 100 μM compounds (final DMSO concentration was 0.1%). The samples were heated from 25 to 95°C (2.5°C/min). All samples were performed in triplicate and data were analyzed by Protein Thermal Shift Software version 1.3 (Applied Biosystems).

ALKBH5 [3] = molecular target: T6, ALKBH5; assay: HTMR (FP-based) ALKBH5 demethylation assay; format: biochemical; settings: different concentrations of 2-OG
Experimental: as §3, with “The reaction was initiated by the addition of the enzymes or the substrates and terminated by the addition of methyl-binding proteins.” left out
The reaction buffer containing 20 mM HEPES, pH 7.4, 250 mM NaCl, 200 μM 2-OG, 300 μM ascorbic acid, and 50 μM […]. […] The plate can then be read immediately or after 10–15 min of incubation due to an equal concentration of NaCl. After this, the plate can be read by EnVision (PerkinElmer).
as §4

ALKBH5(66–292) [4] = molecular target: T8, ALKBH5(66–292); assay: NMR CPMG and STD experiments; format: binding; settings: 200 μM compound, 5 μM ALKBH5
Experimental: Saturation transfer difference (STD) and Carr-Purcell-Meiboom-Gill (CPMG) experiments were performed to investigate the interaction between the compound and the protein, as previously described ([65]). All NMR spectra were acquired on a Bruker Avance III 600 MHz NMR spectrometer equipped with a cryoprobe (Bruker Biospin, Germany). The 5 μM ALKBH5(66–292) protein and 200 μM compound were dissolved into a phosphate buffer containing 20 mM NaH2PO4, 20 mM Na2HPO4, pH 7.4, 100 mM NaCl, 95% D2O, 5% DMSO-d6 and then used in NMR data acquisition. Transverse relaxation-edited spectra were recorded using the water-suppressed CPMG pulse sequence. Sixty-four transients were collected into 48 076 data points with a spectral width of 8.0 kHz and an acquisition time of 3.0 s. STD spectrum was recorded using the pulse sequence of stddiffgp19.3 with water suppression (3–9–19 WATERGATE). The on and off resonance excitation positions were defined at –0.17 and 33 ppm, respectively. The bandwidth for the saturation pulse was set to 42.4 Hz. One hundred and twenty-eight transients were collected into 32,768 data points with a spectral width of 9.6 kHz and an acquisition time of 1.71 s.

[5] = molecular target: T9, tri-MBD1 (GST-MBD1-MBD1-MBD1) (UniProt Q9UIS9 1-105); assay: fluorescence polarization; 400 mM NaCl, 20 nM DNMT1 present; FP, 384-well; methyl readers at final NaCl 400 mM (DNMT1 assay), 300 mM (TET2), 250 mM (METTL3/14, ALKBH5), 10-15 min; DNMT1 and METTL3/14 binding in 20 mM HEPES pH 7.4, 1 mM DTT with varied NaCl; TET2 and ALKBH5 in reaction buffer without NaCl; temperature not stated; settings: protein: recombinant; tags: N-terminal GST (pGEX-6P-1); label: 5'-FAM top strand; blunt
T9 chain: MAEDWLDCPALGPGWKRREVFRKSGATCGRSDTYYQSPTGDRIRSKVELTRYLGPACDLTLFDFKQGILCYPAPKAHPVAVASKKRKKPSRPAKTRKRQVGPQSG

GST-YTHDF1 YTH domain = molecular target: T10, GST-YTHDF1 YTH domain (UniProt Q9BYJ9 361-559); assay: fluorescence polarization; 250 mM NaCl; over 100-fold selectivity for m6A over unmodified RNA; FP, 384-well; methyl readers at final NaCl 400 mM (DNMT1 assay), 300 mM (TET2), 250 mM (METTL3/14, ALKBH5), 10-15 min; DNMT1 and METTL3/14 binding in 20 mM HEPES pH 7.4, 1 mM DTT with varied NaCl; TET2 and ALKBH5 in reaction buffer without NaCl; temperature not stated; settings: protein: recombinant; tags: N-terminal GST; label: 5'-FAM; single strand
T10 sequence: T5 sequence (Q9BYJ9 361-559)

T6 sequence (Q6P6C2 66-292): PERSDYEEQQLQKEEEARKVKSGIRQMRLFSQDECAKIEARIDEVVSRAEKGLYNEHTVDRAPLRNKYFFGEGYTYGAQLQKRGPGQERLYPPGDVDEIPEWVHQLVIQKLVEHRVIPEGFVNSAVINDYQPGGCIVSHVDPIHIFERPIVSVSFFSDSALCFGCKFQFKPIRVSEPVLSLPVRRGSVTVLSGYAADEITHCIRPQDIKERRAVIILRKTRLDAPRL
T3 sequence (P26358 351-1600): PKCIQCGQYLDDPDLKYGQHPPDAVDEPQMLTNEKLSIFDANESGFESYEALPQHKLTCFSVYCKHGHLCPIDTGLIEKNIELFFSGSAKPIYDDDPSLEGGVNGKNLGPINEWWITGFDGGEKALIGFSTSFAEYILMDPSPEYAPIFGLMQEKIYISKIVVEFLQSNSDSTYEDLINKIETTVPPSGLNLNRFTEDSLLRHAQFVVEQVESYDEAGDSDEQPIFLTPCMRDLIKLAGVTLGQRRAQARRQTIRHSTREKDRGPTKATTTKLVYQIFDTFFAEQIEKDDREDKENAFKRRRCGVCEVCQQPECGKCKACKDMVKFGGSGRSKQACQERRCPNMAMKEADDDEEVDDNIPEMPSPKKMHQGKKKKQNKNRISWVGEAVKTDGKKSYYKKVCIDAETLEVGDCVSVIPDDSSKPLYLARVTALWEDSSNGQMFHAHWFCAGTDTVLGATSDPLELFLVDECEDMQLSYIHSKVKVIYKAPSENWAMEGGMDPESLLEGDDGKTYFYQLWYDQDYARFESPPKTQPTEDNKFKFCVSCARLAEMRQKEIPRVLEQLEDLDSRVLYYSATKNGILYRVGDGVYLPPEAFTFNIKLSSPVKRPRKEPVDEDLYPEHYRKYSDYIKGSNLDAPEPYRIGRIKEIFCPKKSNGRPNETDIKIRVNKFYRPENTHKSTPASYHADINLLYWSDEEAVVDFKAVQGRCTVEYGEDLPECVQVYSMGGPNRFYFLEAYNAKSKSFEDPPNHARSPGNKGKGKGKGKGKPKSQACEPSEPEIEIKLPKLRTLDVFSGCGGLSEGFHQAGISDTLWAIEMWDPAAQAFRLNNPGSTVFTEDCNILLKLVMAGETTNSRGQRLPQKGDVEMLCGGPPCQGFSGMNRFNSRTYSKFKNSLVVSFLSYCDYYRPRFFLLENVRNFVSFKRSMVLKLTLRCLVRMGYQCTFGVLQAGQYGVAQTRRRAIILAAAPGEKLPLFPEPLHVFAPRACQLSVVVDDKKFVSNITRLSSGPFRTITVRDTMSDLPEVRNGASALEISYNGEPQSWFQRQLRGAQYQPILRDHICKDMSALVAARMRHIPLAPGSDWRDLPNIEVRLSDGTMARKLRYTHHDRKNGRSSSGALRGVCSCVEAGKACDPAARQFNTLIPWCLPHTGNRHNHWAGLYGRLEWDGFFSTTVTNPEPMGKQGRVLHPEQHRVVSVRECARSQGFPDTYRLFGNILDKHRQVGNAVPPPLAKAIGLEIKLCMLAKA
T4 sequence (P26358 351-1600): as above
T8 sequence (Q6P6C2 66-292): as the sequence (Q6P6C2 66-292) above
T2 sequence (Q86U44 whole entry): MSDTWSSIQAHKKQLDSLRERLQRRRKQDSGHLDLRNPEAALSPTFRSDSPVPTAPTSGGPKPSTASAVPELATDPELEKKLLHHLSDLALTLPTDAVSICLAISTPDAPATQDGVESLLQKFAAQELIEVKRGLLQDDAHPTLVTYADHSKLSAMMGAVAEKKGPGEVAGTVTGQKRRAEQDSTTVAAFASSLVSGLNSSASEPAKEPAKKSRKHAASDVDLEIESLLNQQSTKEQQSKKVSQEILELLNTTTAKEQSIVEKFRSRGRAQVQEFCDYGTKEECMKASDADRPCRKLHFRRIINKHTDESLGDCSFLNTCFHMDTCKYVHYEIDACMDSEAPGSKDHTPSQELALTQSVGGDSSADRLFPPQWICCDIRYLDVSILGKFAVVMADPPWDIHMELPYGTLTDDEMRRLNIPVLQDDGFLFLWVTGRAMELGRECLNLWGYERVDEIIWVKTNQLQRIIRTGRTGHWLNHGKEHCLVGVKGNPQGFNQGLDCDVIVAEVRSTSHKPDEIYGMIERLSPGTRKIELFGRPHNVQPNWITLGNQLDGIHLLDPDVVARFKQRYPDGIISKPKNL

Ki (METTL3/14): 2.06 ± 2.8 µM
Molecule: Nc1ncnc2c1ncn2[C@@H]1O[C@H](CSCC[C@H](N)C(=O)O)[C@@H](O)[C@H]1O [SAH]

Interference with the assay (counter screen) (tri-MBD1; DNMT1 assay format, enzyme removed): didn’t interference the assay
Effect on DNA binding of DNMT1 (DNMT1): competed with the binding of DNA
Effect on DNA binding of DNMT1 (DNMT1; listed as Ellagic acid): disturbed the DNA-DNMT1
Mechanism with respect to cofactor SAM (DNMT1(351–1600); cofactor-competitive assay, increasing SAM): SAM-noncompetitive
IC50 (DNMT1(351–1600); different concentrations of SAM, read-out: IC50 against DNMT1): ~67 µM
Molecule: O=c1oc2c(O)c(O)cc3c(=O)oc4c(O)c(O)cc1c4c23 [ellagic acid]

The remaining lines, values behind:

Molecule: O=C(O)c1ccc(O)c2ncccc12 [IOX1, reference compound]
Effect on binding of tri-MBD1 (tri-MBD1; high concentration (over 50 μM)): can inhibit the binding of tri-MBD1

Molecule: O=c1c(O)c(-c2ccc(O)c(O)c2)oc2cc(O)cc(O)c12 [quercetin]
Interference with the assay (counter screen) (YTHDF1): didn’t interference the assay
Effect on RNA binding of ALKBH5 (ALKBH5 [1]): did not affect the RNA binding of ALKBH5
Effect on RNA binding of ALKBH5 (ALKBH5 [1]; listed as Quercetin): didn’t affect the RNA binding
Activity during the TET2 demethylation reaction (TET2): high activity
ΔTm at 100 µM (ALKBH5(66–292) [2]): 2.57 °C
Change of IC50 in the ALKBH5 reaction with 2-OG concentration (ALKBH5 [3]): did not significantly change
Direct binding to ALKBH5 catalytic domain (CPMG, STD) (ALKBH5(66–292) [4]): strongly bound

B1: fully-methylated DNA [M/M] (dsDNA)
DNA 1: TACGACCAGGAT
DNA 2: ATCCTGGTCGTA
modifications: 5mC at position 3 of top strand and position 9 of bottom strand
binding result [5]: binds

B2: m6A-modified RNA (ssRNA)
RNA: GAACCGGACUGUCUUA
modifications: m6A at position 8
binding result (GST-YTHDF1 YTH domain): binds
